Results on 34 compounds are retold here after ChEMBL document CHEMBL1131038, “Derivatives of the triazoloquinazoline adenosine antagonist (CGS 15943) having high potency at the human A2B and A3 receptor subtypes” (J Med Chem, 1998).

The target in one test is T1, Adenosine receptor A1 (Rattus norvegicus, UniProt P25099).
T1 sequence (P25099 whole entry): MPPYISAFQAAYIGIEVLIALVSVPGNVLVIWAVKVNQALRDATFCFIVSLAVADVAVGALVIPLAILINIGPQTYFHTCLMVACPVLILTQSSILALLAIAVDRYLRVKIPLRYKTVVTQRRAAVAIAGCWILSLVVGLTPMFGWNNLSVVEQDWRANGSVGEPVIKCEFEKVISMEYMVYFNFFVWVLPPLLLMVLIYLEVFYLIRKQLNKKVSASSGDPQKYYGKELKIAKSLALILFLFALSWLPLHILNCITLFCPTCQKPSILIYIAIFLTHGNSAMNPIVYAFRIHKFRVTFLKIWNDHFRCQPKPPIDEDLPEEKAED

Test [1] addresses T2, Adenosine receptor A2b (Homo sapiens) (UniProt P29275).
T2 sequence (whole entry): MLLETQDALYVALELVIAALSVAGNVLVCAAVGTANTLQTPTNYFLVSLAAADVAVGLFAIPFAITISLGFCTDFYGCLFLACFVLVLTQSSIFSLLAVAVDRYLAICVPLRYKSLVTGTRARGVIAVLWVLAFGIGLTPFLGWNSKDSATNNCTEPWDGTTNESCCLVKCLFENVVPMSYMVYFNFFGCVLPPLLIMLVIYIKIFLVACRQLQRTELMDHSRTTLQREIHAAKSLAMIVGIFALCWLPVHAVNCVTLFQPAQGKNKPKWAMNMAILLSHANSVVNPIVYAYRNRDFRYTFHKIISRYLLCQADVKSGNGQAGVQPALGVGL
Put plainly: Inhibition at 50 uM on cAMP production induced by 50 uM 5`-(N-ethylcarboxamido)adenosine in CHO cell line transfected with human Adenosine A2B receptor cDNA. Format: cell-based. On the technique in general: Cyclic AMP is a second messenger, typically raised through Gs and lowered through Gi signalling.

The next test has as its target Adenosine receptor A2a (Rattus norvegicus, UniProt P30543). Kind of test: Binding affinity was determined in radioligand binding assay at rat striatal Adenosine A2A receptor vs [3H]-CGS- 21680.
Test [2] can be described thus: Ratio against rat A2A receptor and Human A3 receptor.
Test [3] can be described thus: Ratio against rat A1 receptor and Human A3 receptor.
The next test deals with T3, Adenosine receptor A3 (Homo sapiens, UniProt P0DMS8).
T3 sequence (P0DMS8 whole entry): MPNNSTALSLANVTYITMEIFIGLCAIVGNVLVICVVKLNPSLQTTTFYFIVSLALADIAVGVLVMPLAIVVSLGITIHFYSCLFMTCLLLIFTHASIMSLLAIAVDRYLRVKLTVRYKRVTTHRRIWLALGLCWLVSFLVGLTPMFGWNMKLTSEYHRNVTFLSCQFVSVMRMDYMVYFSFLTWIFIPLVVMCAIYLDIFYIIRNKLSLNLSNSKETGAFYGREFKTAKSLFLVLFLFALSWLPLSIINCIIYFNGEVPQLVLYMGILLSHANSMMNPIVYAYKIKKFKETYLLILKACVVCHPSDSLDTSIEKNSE
Put plainly: biochemical.

Sequence of Adenosine receptor A2a (P30543 whole entry): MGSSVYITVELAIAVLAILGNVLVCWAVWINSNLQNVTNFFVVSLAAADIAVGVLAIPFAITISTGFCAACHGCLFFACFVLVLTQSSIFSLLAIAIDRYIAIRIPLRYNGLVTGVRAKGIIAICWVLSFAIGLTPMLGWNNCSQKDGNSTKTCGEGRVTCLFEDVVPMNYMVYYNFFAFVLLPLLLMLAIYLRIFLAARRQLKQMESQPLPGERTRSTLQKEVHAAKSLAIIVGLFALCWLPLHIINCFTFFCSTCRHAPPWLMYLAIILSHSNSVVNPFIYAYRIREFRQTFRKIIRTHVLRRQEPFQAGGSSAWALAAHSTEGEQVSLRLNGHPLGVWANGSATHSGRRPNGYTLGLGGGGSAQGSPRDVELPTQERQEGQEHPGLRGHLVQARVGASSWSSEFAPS
Description for Adenosine receptor A1: Binding affinity was determined in radioligand binding assay at rat brain adenosine A1 receptor vs [3H]R-PIA
Description for Adenosine receptor A3: Binding affinity at cloned human adenosine A3 receptor expressed in HEK293 cells was determined using [125I]AB-MECA as radioligand

Consider `O=C(Cc1ccccc1)Nc1nc2ccc(Cl)cc2c2nc(-c3ccco3)nn12`, for which the Ki (usually a measure of affinity in units of concentration, obtained from inhibition or displacement) at Adenosine receptor A1 was 52.7 nM; at Adenosine receptor A2a, 10.3 nM. In addition, the inhibition (usually the change of the read-out against control, counted positive when it falls) in test [1] came out at 71%.

In the case of `C[C@H](N)C(=O)Nc1nc2ccc(Cl)cc2c2nc(-c3ccco3)nn12`, the Selectivity ratio worked out at 0.12 in test [2] and 0.33 in test [3]. The values for the Ki on Adenosine receptor A1, at Adenosine receptor A3 and on Adenosine receptor A2a were 390 nM, 1200 nM and 143 nM, respectively.

Regarding `Clc1ccc2nc(NCc3ccccc3)n3nc(-c4ccco4)nc3c2c1`, the Selectivity ratio amounted to 4.7 in test [2] and 28 in test [3]. In addition, the results for the Ki at Adenosine receptor A3 and at Adenosine receptor A2a were 42.5 nM and 200 nM, respectively. This compound also gave an inhibition in test [1] of 21%.

With `C[C@@H](NC(=O)OC(C)(C)C)C(=O)Nc1nc2ccc(Cl)cc2c2nc(-c3ccco3)nn12`, the Selectivity ratio turned out to be 0.41 in test [2] and 1 in test [3]. The values for the Ki at Adenosine receptor A1, at Adenosine receptor A3 and at Adenosine receptor A2a were 48.6 nM, 46.3 nM and 18.8 nM, respectively.

As to `C[C@H](C(=O)Nc1nc2ccc(Cl)cc2c2nc(-c3ccco3)nn12)c1ccccc1`, the Selectivity ratio in test [2] was 31; in test [3], 130. Moreover, the inhibition constant Ki at Adenosine receptor A1 was 46.2 nM; on Adenosine receptor A3, 0.362 nM; on Adenosine receptor A2a it was 11.1 nM.

For `O=C(Nc1nc2ccc(Cl)cc2c2nc(-c3ccco3)nn12)c1cccc(I)c1`, the inhibition in test [1] was 38%.

Take `CC(C)(C)OC(=O)NCCCCC(=O)Nc1nc2ccc(Cl)cc2c2nc(-c3ccco3)nn12`: the Selectivity ratio in test [2] is 0.17; in test [3], 1.4. Also, the Ki on Adenosine receptor A1 stood at 30.1 nM; on Adenosine receptor A3, 22 nM; at Adenosine receptor A2a, 3.64 nM.

In the case of `COC(=O)CCC(=O)Nc1nc2ccc(Cl)cc2c2nc(-c3ccco3)nn12`, the Selectivity ratio was 0.52 in test [2] and 1.3 in test [3]. In addition, the Ki turned out to be 71.8 nM on Adenosine receptor A1, 55.1 nM on Adenosine receptor A3 and 28.8 nM at Adenosine receptor A2a.

For the compound `CCCCC(=O)Nc1nc2ccc(Cl)cc2c2nc(-c3ccco3)nn12`, the inhibition in test [1] was 79%.

In the case of `O=C(Cc1ccccc1I)Nc1nc2ccc(Cl)cc2c2nc(-c3ccco3)nn12`, the Selectivity ratio in test [2] and in test [3] was under 1 in each case. Moreover, the Ki on Adenosine receptor A1 is 2300 nM; at Adenosine receptor A3 it was over 10000 nM; at Adenosine receptor A2a, 17.2 nM.

As for `CC(NC(=O)OC(C)(C)C)C(=O)Nc1nc2ccc(Cl)cc2c2nc(-c3ccco3)nn12` (configuration not stated), the Selectivity ratio stood at 0.08 in test [2] and 0.66 in test [3]. Besides, the Ki was determined as 54.7 nM on Adenosine receptor A1, 82.9 nM on Adenosine receptor A3 and 6.65 nM at Adenosine receptor A2a.

For `O=C(Nc1nc2ccc(Cl)cc2c2nc(-c3ccc(Br)o3)nn12)c1ccccc1`, in test [1], the inhibition was determined as 0%.

For `O=C(CCCCC(=O)OCc1ccccc1)Nc1nc2ccc(Cl)cc2c2nc(-c3ccco3)nn12`, the Selectivity ratio is 0.37 in test [2] and 6.8 in test [3]. For the same compound, the values for the inhibitory constant (Ki) on Adenosine receptor A1, on Adenosine receptor A3 and on Adenosine receptor A2a were 304 nM, 44.7 nM and 16.7 nM, respectively.

`O=C(Nc1nc2ccc(Cl)cc2c2nc(-c3ccco3)nn12)c1ccccc1` showed an inhibition in test [1] of 58%.

In the case of `CC(C(=O)Nc1nc2ccc(Cl)cc2c2nc(-c3ccco3)nn12)(c1ccccc1)c1ccccc1`, the results for the Selectivity ratio in test [2] and in test [3] were 2.3 and 4.6, respectively. In addition, the Ki on Adenosine receptor A1 came out at 890 nM; on Adenosine receptor A3 it was 194 nM; on Adenosine receptor A2a, 453 nM.

For `O=C(Nc1nc2ccc(Cl)cc2c2nc(-c3ccco3)nn12)C(c1ccccc1)c1ccccc1`, the Selectivity ratio in test [2] stood at 21; in test [3], 220. Also, the Ki amounted to 129 nM at Adenosine receptor A1, 0.586 nM on Adenosine receptor A3 and 12.1 nM at Adenosine receptor A2a.

`CCCn1c(=O)n2nc(-c3ccco3)nc2c2cc(Cl)ccc21` had an inhibition in test [1] of 0%.

Take `C[C@@H](N)C(=O)Nc1nc2ccc(Cl)cc2c2nc(-c3ccco3)nn12`: the values for the Selectivity ratio in test [2] and in test [3] were 0.026 and 0.17, respectively. Also, the inhibition constant (Ki) was found to be 193 nM on Adenosine receptor A1, 1140 nM at Adenosine receptor A3 and 29.7 nM at Adenosine receptor A2a.

As to `CCO/C(O)=C1\C(C)=NC(c2ccccc2)=C(C(=O)OCc2ccc([N+](=O)[O-])cc2)C1C#Cc1ccccc1` (configuration not stated), the Ki at Adenosine receptor A1 and on Adenosine receptor A2a was over 100 nM in each case.

With `CC(C)(C)OC(=O)NCCCC(=O)Nc1nc2ccc(Cl)cc2c2nc(-c3ccco3)nn12`, the Selectivity ratio came out at 0.6 in test [2] and 1.4 in test [3]. For the same compound, the Ki on Adenosine receptor A1 came out at 45.9 nM; on Adenosine receptor A2a it was 19.9 nM. For the same compound, the inhibition in test [1] stood at 47%.

`Nc1nc2ccc(Cl)cc2c2nc(-c3ccc(Br)o3)nn12` yielded an inhibition in test [1] of 16%.

For the compound `CCC(=O)Nc1nc2ccc(Cl)cc2c2nc(-c3ccco3)nn12`, the inhibition in test [1] came to 66%.

As to `CC(C)(C)OC(=O)NCCCCCCC(=O)Nc1nc2ccc(Cl)cc2c2nc(-c3ccco3)nn12`, the Selectivity ratio worked out at 0.21 in test [2] and 0.71 in test [3]. Moreover, the Ki at Adenosine receptor A1 was 38.2 nM; at Adenosine receptor A3, 53.7 nM; on Adenosine receptor A2a, 11.1 nM.

With `COc1ccc(CC(=O)Nc2nc3ccc(Cl)cc3c3nc(-c4ccco4)nn23)cc1`, the Selectivity ratio is 1.9 in test [2] and 2.1 in test [3]. Besides, the Ki at Adenosine receptor A1 was determined as 30.2 nM; on Adenosine receptor A3, 14.4 nM; at Adenosine receptor A2a it was 28 nM.

In turn, `CCO/C(O)=C1\C(C)=NC(c2ccccc2)=C(C(=O)OCc2ccccc2)C1C#Cc1ccccc1` (configuration not stated) showed a Ki on Adenosine receptor A2a of over 100 nM.

For the compound `CCCC(=O)Nc1nc2ccc(Cl)cc2c2nc(-c3ccco3)nn12`, the inhibition in test [1] came to 66%.

At Adenosine receptor A3, `O=C(CCc1ccccc1)Nc1nc2ccc(Cl)cc2c2nc(-c3ccco3)nn12` gave a Ki of 23.6 nM. Moreover, in test [1], the inhibition was found to be 43%.

With `C[C@@H](C(=O)Nc1nc2ccc(Cl)cc2c2nc(-c3ccco3)nn12)c1ccccc1`, the Ki came out at 37.5 nM at Adenosine receptor A1, 0.468 nM on Adenosine receptor A3 and 20.1 nM on Adenosine receptor A2a.

Take `O=C(Cc1cccc(I)c1)Nc1nc2ccc(Cl)cc2c2nc(-c3ccco3)nn12`: the Selectivity ratio is 0.011 in test [2] and 0.051 in test [3]. Also, the values for the Ki on Adenosine receptor A1, on Adenosine receptor A3 and on Adenosine receptor A2a were 45.4 nM, 882 nM and 9.67 nM, respectively.

As for `Oc1nc2ccc(Cl)cc2c2nc(-c3ccco3)nn12`, the inhibition in test [1] stood at 0%.

For `COC(=O)CCCCCCC(=O)Nc1nc2ccc(Cl)cc2c2nc(-c3ccco3)nn12`, the Selectivity ratio was found to be 0.13 in test [2] and 0.79 in test [3]. Further, the Ki stood at 46.6 nM at Adenosine receptor A1, 59 nM at Adenosine receptor A3 and 7.43 nM on Adenosine receptor A2a.

For the compound `CC(C)(C)OC(=O)NCCC(=O)Nc1nc2ccc(Cl)cc2c2nc(-c3ccco3)nn12`, the Selectivity ratio in test [2] was found to be 1.1; in test [3], 4.6. In addition, the Ki on Adenosine receptor A1 amounted to 31 nM; at Adenosine receptor A3 it was 6.71 nM; at Adenosine receptor A2a, 7.58 nM.

As to `CC(C)(C)OC(=O)NCCCCCC(=O)Nc1nc2ccc(Cl)cc2c2nc(-c3ccco3)nn12`, the Selectivity ratio in test [2] was 1; in test [3], 1.6. The inhibitory constant (Ki) at Adenosine receptor A1 was 53.8 nM; on Adenosine receptor A3 it was 33.8 nM; on Adenosine receptor A2a, 33.7 nM.

With `Nc1nc2ccc(Cl)cc2c2nc(-c3ccco3)nn12` [CGS-15943], the inhibition in test [1] stood at 100%. Further, at Adenosine receptor A2a, the Ki was 3.3 nM.
